Reference: PubChem BioAssay AID1963961 (Molecular Pharmacology Branch, DTP, NCI, 2024)

System: K98450-129-R-PDC multicell spheroids, viability
Assay: Anticancer human tumor K98450-129-R-PDC patient-derived colon adenocarcinoma cell line growth inhibition [PI3K]
Conditions: for IC50: curve of first compound; for viability, T/C: stronger effect = lower value; active = viability on the fitted dose curve at most 10% of control; inactive = the rest
Summary of the method: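 Stroma-containing spheroids: tumor line, pooled-donor HUVEC, hMSC. Treatments: targeted agents with PI3K inhibitors. Dosing: clinically relevant, half-log spacing, 10 microM ceiling without known Cmax. Read-out: cell viability.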
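Also: spheroids exposed to agents for seven days before read-out.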

Cn1cnc2c(F)c(Nc3ccc(Br)cc3Cl)c(C(=O)NOCCO)cc21 + COc1c(OCCCN2CCOCC2)ccc2c3n(c(=NC(=O)c4cnc(N)nc4)nc12)CCN3
102 nM: IC50 (second compound 0.316 µM)
1000 nM: IC50 (second compound 0.01 µM)
< 9.49 nM: IC50 (second compound 1 µM)
351 nM: IC50 (second compound 0.0316 µM)
663 nM: IC50 (second compound 0.00316 µM)
303 nM: IC50 (second compound 0.1 µM)
active: viability, T/C (second compound 0.1 µM, first compound 3 µM) 5.26% | viability, T/C (second compound 0.316 µM, first compound 3 µM) 6.72% | viability, T/C (second compound 1 µM, first compound 3 µM) 4.95%
inactive: viability, T/C (second compound 0.00316 µM, first compound 0.00949 µM) 98.5% | viability, T/C (second compound 0.00316 µM, first compound 0.03 µM) 77.5% | viability, T/C (second compound 0.00316 µM, first compound 0.0949 µM) 76.3% | viability, T/C (second compound 0.00316 µM, first compound 0.3 µM) 68.8% | viability, T/C (second compound 0.00316 µM, first compound 0.949 µM) 41.5% | viability, T/C (second compound 0.00316 µM, first compound 3 µM) 21.3% | viability, T/C (second compound 0.01 µM, first compound 0.00949 µM) 94.7% | viability, T/C (second compound 0.01 µM, first compound 0.03 µM) 77.9% | viability, T/C (second compound 0.01 µM, first compound 0.0949 µM) 74.6% | viability, T/C (second compound 0.01 µM, first compound 0.3 µM) 65.5% | viability, T/C (second compound 0.01 µM, first compound 0.949 µM) 58.9% | viability, T/C (second compound 0.01 µM, first compound 3 µM) 18.2% | viability, T/C (second compound 0.0316 µM, first compound 0.00949 µM) 91.6% | viability, T/C (second compound 0.0316 µM, first compound 0.03 µM) 86.1% | viability, T/C (second compound 0.0316 µM, first compound 0.0949 µM) 66% | viability, T/C (second compound 0.0316 µM, first compound 0.3 µM) 50.2% | viability, T/C (second compound 0.0316 µM, first compound 0.949 µM) 37.7% | viability, T/C (second compound 0.0316 µM, first compound 3 µM) 14.7% | viability, T/C (second compound 0.1 µM, first compound 0.00949 µM) 87.4% | viability, T/C (second compound 0.1 µM, first compound 0.03 µM) 71.4% | viability, T/C (second compound 0.1 µM, first compound 0.0949 µM) 71.8% | viability, T/C (second compound 0.1 µM, first compound 0.3 µM) 49.9% | viability, T/C (second compound 0.1 µM, first compound 0.949 µM) 26.7% | viability, T/C (second compound 0.316 µM, first compound 0.00949 µM) 56.4% | viability, T/C (second compound 0.316 µM, first compound 0.03 µM) 49.9% | viability, T/C (second compound 0.316 µM, first compound 0.0949 µM) 47.8% | viability, T/C (second compound 0.316 µM, first compound 0.3 µM) 39.2% | viability, T/C (second compound 0.316 µM, first compound 0.949 µM) 11.4% | viability, T/C (second compound 1 µM, first compound 0.00949 µM) 45.9% | viability, T/C (second compound 1 µM, first compound 0.03 µM) 37.8% | viability, T/C (second compound 1 µM, first compound 0.0949 µM) 29.8% | viability, T/C (second compound 1 µM, first compound 0.3 µM) 22.6% | viability, T/C (second compound 1 µM, first compound 0.949 µM) 9.08%
